In publication PMC4634248 (Influenza and Other Respiratory Viruses, 2013):
“Also recorded” adds a separate entry of the source.

System: NA activity of A(H1N1)pdm09 viruses with the H275Y substitution
Type: biochemical, influenza A(H1N1)pdm09 virus

CC(=O)N[C@H]1[C@H]([C@H](O)[C@H](O)CO)OC(C(=O)O)=C[C@@H]1N=C(N)N [zanamivir]
IC50 values of H275Y mutants relative to those of viruses with 275H: comparable
resistance / sensitivity of H275Y mutant viruses to the NA inhibitor: sensitive

CCC(CC)[C@H](NC(C)=O)[C@@H]1[C@H](O)[C@@H](C(=O)O)C[C@H]1N=C(N)N [peramivir]
fold increased IC50 values (decreased susceptibility) of H275Y mutant viruses compared with 275H: ~140 fold
resistance / sensitivity of H275Y mutant viruses to the NA inhibitor: resistance; also recorded: resistant

[H]/N=C(\N)N[C@H]1C=C(C(=O)O)O[C@@H]([C@H](OC)[C@H](O)CO)[C@@H]1NC(C)=O [laninamivir]
IC50 values of H275Y mutants relative to those of viruses with 275H: comparable
resistance / sensitivity of H275Y mutant viruses to the NA inhibitor: sensitive

CCC(CC)O[C@@H]1C=C(C(=O)O)C[C@H](N)[C@H]1NC(C)=O [oseltamivir, oseltamivir carboxylate]
fold increased IC50 values (decreased susceptibility) of H275Y mutant viruses compared with 275H: about 400 fold
resistance / sensitivity of H275Y mutant viruses to the NA inhibitor: resistance; also recorded: resistant
